Data taken from patent US12263155B2, “Combinations of monoamine oxidase inhibitors and serotonin receptor agonists and their therapeutic use” (Remedi, Inc., priority 2022, dated 2025).

Tests used:
[1] = Phase 1 single dose escalation pharmacokinetics; conditions: for Clast / Cmax/Dose / Tlast / % AUCextrap / AUCinf/Dose / kel / AUC(0-t): mean; for Cmax / Tmax / concentration at 24 h / AUC(0-t) / AUC(0-inf) / CL/F / Vd/F / half-life: male, human, plasma, po
Protocol: (§1) Methods: The trial was a Phase 1, single center, double-blind, placebo-controlled, sequential group, acute dose escalation study of the safety and pharmacokinetics of seven (7) CX157 dose levels in healthy male volunteers. Each of the seven (7) dose groups consisted of six (6) subjects, with the exception of cohort 2 (CX157 10 mg or placebo) which enrolled only five (5) subjects. Within each dose group, four (4) subjects were randomized to CX157 and two (2) subjects to placebo. Subjects were normal healthy volunteers confined to the study center for approximately 4 days, beginning approximately 16 hours before exposure to study drug and ending approximately 48 hours after exposure to study drug. Safety and tolerability was assessed for each dose group by the Principal Investigator before advancing to the next scheduled dose group. CX157 was administered as a fully solubilized microemulsion in Labrasol™
Plasma samples for the pharmacokinetic analysis of CX157 were obtained at predose (30 minutes prior to dosing), 10, 20, 30, 60 and 90 minutes, 2, 4, 8, 12, 16, 24, 36 and 48 hours after dosing. […] FIG. 11 details the plasma concentrations of CX157 (in ng/mL) of subjects for each of the seven dose groups, wherein the dosage amounts of CX157 administered to the subjects were 5 mg, 10 mg, 15 mg, 20 mg, 40 mg, 80 mg, and 120 mg.
Formulation: Each natural/transparent Licaps® size 0 hard gelatin capsule contains 5 mg or 10 mg CX157 in Labrasol™; each capsule is banded with a green gelatin band that is comprised of gelatin NF and polysorbate-80 NF. CX157 Liquid Filled Capsules are packaged in white, opaque, high density polyethylene (HDPE) bottles with screw-top polypropylene child resistant caps. Each bottle contains 30 capsules per bottle. CX157 Liquid Filled Capsules, 5 mg and 10 mg are stored long-term at controlled room temperature conditions [i15° C. to 30° C. (59° F. to 86° F.)].

[2] = Phase I modified release tablets BID safety; format: in vivo, human; conditions: 125 mg and 175 mg BID, 7 days each
Protocol: Methods: A total of 20 Subjects (16 on CX157 and 4 on placebo) were dosed with CX157 Modified Release Tablets, 125 mg BID (total daily dose of 250 mg) or placebo in Period 1 for 7 days. Of the 20 subjects, 19 continued in Period 2 of the study where they received CX157 Modified Release Tablets, 175 mg BID (total daily dose of 350 mg) or placebo in the fed state for 7 days. Subjects who were randomized to CX157 125 mg BID in Period 1 received CX157 175 mg BID in Period 2, after a washout of 7 days. Subjects randomized to placebo in Period 1 received placebo in Period 2, after a washout of 7 days. Blood samples for PK analysis were collected during both periods of the study.

[3] = Protocol: as §1
[4] = healthy males, single oral 5 mg
[5] = healthy males, single oral 10 mg
[6] = healthy males, single oral 15 mg
[7] = healthy males, single oral 20 mg
[8] = healthy males, single oral 40 mg
[9] = healthy males, single oral 80 mg

With `O=S1(=O)c2ccc(F)cc2Oc2cc(OCC(F)(F)F)ccc21` [CX157, 3-fluoro-7(2,2,2-trifluorethoxy)phenoxathiine-10,10-dioxide] the Clast [1, 4] was 0.15 ng/mL, the Cmax/Dose [1, 4] was 87 and the Tlast [1, 4] was 17 h. For the same compound, the “% AUCextrap” value [1, 5] was 6.2%, the AUCinf/Dose [1, 5] was 906 and the Clast [1, 5] was 0.2 ng/mL. The Cmax/Dose [1, 5] was 182, the Tlast [1, 5] was 40 h and the kel [1, 5] was 0.0371 h⁻¹. For the same compound, the “% AUCextrap” value [1, 6] was 5%, the AUCinf/Dose [1, 6] was 673 and the Clast [1, 6] was 0.38 ng/mL. The Cmax/Dose [1, 6] was 212, the Tlast [1, 6] was 45 h and the kel [1, 6] was 0.0529 h⁻¹. For the same compound, the “% AUCextrap” value [1, 7] was 3.1%, the AUCinf/Dose [1, 7] was 701 and the Clast [1, 7] was 0.24 ng/mL. It also gave a Cmax/Dose [1, 7] of 251, a Tlast [1, 7] of 48 h and a kel [1, 7] of 0.0488 h⁻¹. The “% AUCextrap” value [1, 8] was 3.3%, the AUCinf/Dose [1, 8] was 619 and the Clast [1, 8] was 0.48 ng/mL. The Cmax/Dose [1, 8] was 234, the Tlast [1, 8] was 48 h and the kel [1, 8] was 0.0459 h⁻¹. The “% AUCextrap” value [1, 9] was 5.2%, the AUCinf/Dose [1, 9] was 720 and the Clast [1, 9] was 1.9 ng/mL. The Cmax/Dose [1, 9] was 232, the Tlast [1, 9] was 48 h and the kel [1, 9] was 0.0456 h⁻¹. The Cmax ([1]; 5 mg) was 5.8 ng/mL, the Tmax ([1]; 5 mg) was 0.75 h and the concentration at 24 h ([1]; 5 mg) was 0.14 ng/mL. It also gave an AUC(0-t) ([1]; 5 mg, AUC0-24, healthy males, single oral 5 mg) of 21.6 ng·h/mL, an AUC(0-t) ([1]; 5 mg, AUClast, healthy males, single oral 5 mg) of 16.5 ng·h/mL and an AUC(0-inf) ([1]; 10 mg) of 102 ng·h/mL. For the same compound, the CL/F ([1]; 10 mg) was 19.7 mL/min/kg, the Cmax ([1]; 10 mg) was 20.8 ng/mL and the Tmax ([1]; 10 mg) was 1.17 h. For the same compound, the Vd/F ([1]; 10 mg) was 33.3 L/kg, the concentration at 24 h ([1]; 10 mg) was 0.37 ng/mL and the half-life ([1]; 10 mg) was 18.9 h. The AUC(0-t) ([1]; 10 mg, AUC0-24, healthy males, single oral 10 mg) was 63 ng·h/mL, the AUC(0-t) ([1]; 10 mg, AUC0-48, healthy males, single oral 10 mg) was 96 ng·h/mL and the AUC(0-t) ([1]; 10 mg, AUClast, healthy males, single oral 10 mg) was 69 ng·h/mL. The AUC(0-inf) ([1]; 15 mg) was 129 ng·h/mL, the CL/F ([1]; 15 mg) was 30.2 mL/min/kg and the Cmax ([1]; 15 mg) was 42.2 ng/mL. It also gave a Tmax ([1]; 15 mg) of 0.88 h, a Vd/F ([1]; 15 mg) of 33.7 L/kg and a concentration at 24 h ([1]; 15 mg) of 1 ng/mL. It also gave a half-life ([1]; 15 mg) of 13.3 h, an AUC(0-t) ([1]; 15 mg, AUC0-24, healthy males, single oral 15 mg) of 107 ng·h/mL and an AUC(0-t) ([1]; 15 mg, AUC0-48, healthy males, single oral 15 mg) of 129 ng·h/mL. The AUC(0-t) ([1]; 15 mg, AUClast, healthy males, single oral 15 mg) was 122 ng·h/mL, the AUC(0-inf) ([1]; 20 mg) was 154 ng·h/mL and the CL/F ([1]; 20 mg) was 26.5 mL/min/kg. The Cmax ([1]; 20 mg) was 56.1 ng/mL, the Tmax ([1]; 20 mg) was 0.75 h and the Vd/F ([1]; 20 mg) was 32.9 L/kg. It also gave a concentration at 24 h ([1]; 20 mg) of 0.74 ng/mL, a half-life ([1]; 20 mg) of 14.4 h and an AUC(0-t) ([1]; 20 mg, AUC0-24, healthy males, single oral 20 mg) of 139 ng·h/mL. For the same compound, the AUC(0-t) ([1]; 20 mg, AUC0-48, healthy males, single oral 20 mg) was 149 ng·h/mL, the AUC(0-t) ([1]; 20 mg, AUClast, healthy males, single oral 20 mg) was 149 ng·h/mL and the AUC(0-inf) ([1]; 40 mg) was 321 ng·h/mL. The CL/F ([1]; 40 mg) was 29.9 mL/min/kg, the Cmax ([1]; 40 mg) was 123 ng/mL and the Tmax ([1]; 40 mg) was 0.83 h. It also gave a Vd/F ([1]; 40 mg) of 38.1 L/kg, a concentration at 24 h ([1]; 40 mg) of 1.4 ng/mL and a half-life ([1]; 40 mg) of 15.6 h. The AUC(0-t) ([1]; 40 mg, AUC0-24, healthy males, single oral 40 mg) was 291 ng·h/mL, the AUC(0-t) ([1]; 40 mg, AUC0-48, healthy males, single oral 40 mg) was 309 ng·h/mL and the AUC(0-t) ([1]; 40 mg, AUClast, healthy males, single oral 40 mg) was 309 ng·h/mL. The AUC(0-inf) ([1]; 80 mg) was 772 ng·h/mL, the CL/F ([1]; 80 mg) was 25.3 mL/min/kg and the Cmax ([1]; 80 mg) was 245 ng/mL. The Tmax ([1]; 80 mg) was 1 h, the Vd/F ([1]; 80 mg) was 33.5 L/kg and the concentration at 24 h ([1]; 80 mg) was 5.5 ng/mL. For the same compound, the half-life ([1]; 80 mg) was 15.3 h, the AUC(0-t) ([1]; 80 mg, AUC0-24, healthy males, single oral 80 mg) was 647 ng·h/mL and the AUC(0-t) ([1]; 80 mg, AUC0-48, healthy males, single oral 80 mg) was 730 ng·h/mL. For the same compound, the AUC(0-t) ([1]; 80 mg, AUClast, healthy males, single oral 80 mg) was 730 ng·h/mL, the tolerability [2] was “well tolerated” and the “percent of subjects experiencing adverse events” value ([3]; all CX157 groups, single doses) was 89%. For the same compound, the safety and tolerability ([3]; healthy volunteers, single dose escalation) was “safe and well tolerated”.
